Experimental findings from patent US20230128770A1, “COMPOSITIONS AND METHODS FOR ENHANCING DIFFERENTIATION OF STEM CELL-DERIVED BETA CELLS” (President and Fellows of Harvard College, priority 2019, published 2023) are described below.

The test system of test [1] is hPSC-derived MPPs differentiating into NGN3+ / CHGA+ endocrine progenitors. The experiment in a line: Endocrine specification of MPPs at stage 5, flow cytometry and qPCR. Particulars: for CHGA+/NKX6-1+ endocrine progenitor cells by the end of stage 5: assayed at stage 5, day 7. It counts as cell-based, human. The protocol: (§1) Differentiations into SC-β cells were performed following a protocol described in [3] and as follows: HUES8 or 1016 cells were seeded at 6×10^5 cells/mL in mTeSR1 media and […] Y27632 (Sigma-Aldrich). The media was changed 48 h later and the differentiations were started 72 h after the cells were seeded. The media changes were as follows:
(§2) Stage 5 EN: Days 14 and 16: S5+0.25 μM Sant1+100 nM RA+1 μM XXI (EMD Millipore)+10 μM Alk5i II (Axxora)+1 μM T3 (EMD Millipore)+20 ng/mL Betacellulin (Thermo Fisher Scientific). Days 18, 20: S5+25 nM RA+1 μM XXI+10 μM Alk5i II+1 μM T3+20 ng/mL Betacellulin.
(§3) Control and experimental samples were collected from differentiations performed in parallel with hPSC cells obtained from the same maintenance batch. Treatments with 0.35 μM verteporfin (Sigma-Aldrich), 10 μM roscovitine (Sellekchem), or DMSO (Sigma-Aldrich) were performed at the last stages of the differentiation including stage 4 (days 9-14), stage 5 (days 14-18), and stage 6 (day 18-25, first 7 days) in ultra-low attachment six-well plates (Corning).
(§4) Differentiated cell clusters were dispersed into a single-cell suspension with TrypLE (Life Technologies) at RT, fixed with 4% paraformaldehyde at 4° C., washed three times in PBS+0.2% bovine serum albumin (Millipore)+0.1% saponin (Sigma), blocked for 30 min at 4° C. in PBS+5% donkey serum+0.1% saponin, incubated with primary antibodies overnight at 4° C., washed, and incubated with secondary antibodies for 1 h at RT. Stained, fixed cells were filtered through a 40-μm nylon mesh into flow cytometry tubes (BD Falcon) and were analyzed for relevant stage-specific marker expression using LSR II flow cytometers (BD Biosciences) and FlowJo for the data analysis. Samples stained with secondary antibodies only were used to gate on cells that are negative and accurately identified cells expressing the markers included in the analysis. For shRNA-infected samples, only infected GFP+ cells were included in the analysis (approximately in 30-40% of all cells). To quantify incorporation of EdU and estimate levels of proliferation, cells pulsed with 10 μM EdU for 4 h were dissociated as described above unless stated otherwise. The Click-IT EdU flow cytometry kit (Invitrogen) was used to detect EdU incorporation following the manufacturer's protocol with minor modifications.
The total RNA was isolated using the Direct-ZOL Miniprep kit (Zymo Research), and RNA was stored at −80° C. in RNA storage solution (Invitrogen) until subsequent analysis. […] Gene expression levels were determined with NanoString nSolver software with default parameters and normalized with the expression of five housekeeping genes (ITCH, RPL15, RPL19, TCEB1, and UBE2D3). […]
On the technique in general: A flow cytometer gives signals particle by particle.

Test [2] relates to hPSC-derived multipotent pancreatic progenitors (MPPs). It counts as cell-based, human. Particulars: 0.35 μM verteporfin during stage 4, vs DMSO. Here is the method: as §1
Control and experimental samples were collected from differentiations performed in parallel with hPSC cells obtained from the same maintenance batch. […]
as §4, with “Samples stained with secondary antibodies only were used to gate on cells that are negative and accurately identified cells expressing the markers included in the analysis. For shRNA-infected samples, only infected GFP+ cells were included in the analysis (approximately in 30-40% of all cells).” left out, “The Click-IT EdU flow cytometry kit (Invitrogen) was used to detect EdU incorporation following the manufacturer's protocol with minor modifications.” left out

In test [3] the test system is stem cell-derived β cells (SC-β cells). Kind of test: SC-β cell differentiation assayed at end of stage 6 (stage 6, day 14), flow cytometry. It counts as cell-based, human. Here is the method: as §1, §2
Stage 6 (3: Days 21-35 (change every other day): S3 media. In the final stage, cells were analyzed between 28 and 35 days of the protocol.
as §3
For infection, cell clusters collected from spinner flask suspension cultures were dissociated in Accutase (StemCell Technologies) for 10 min, followed by mechanical dissociation and centrifugation at 230 g for 5 min at room temperature (RT). Cell pellets were resuspended at a density of 2.5 million cells/mL in the stage-matched medium with polybrene reagent (Santa Cruz) at 8 μg/mL. Single-cell suspensions were combined with concentrated lentiviral particles and plated on ultra-low attachment six-well plates on a rocker plate set at 70 rpm in a 37° C. incubator, 5% CO2, and 100% humidity. Feeding schedule was followed depending on the stage of differentiation as described above.
as §4

Another test has as its system SC-β cells. Kind of test: Glucose-stimulated insulin secretion (GSIS) in vitro. It counts as cell-based, human. Here is the method: Approximately 1×10^6 SC-β cells in clusters were washed with Krebs buffer and incubated in low (2.8 mM) glucose Krebs in cell culture inserts (Millicell) to starve cells and remove residual insulin at 37° C. for 1 h. Clusters were washed and incubated in low glucose Krebs for 1 h and the supernantant was collected. They were then transferred to high (20 mM) glucose, incubated for 1 h and the supernatant was collected. For sequential GSIS challenges, this sequence of low- and high-glucose stimulations was repeated twice. At the end, clusters were incubated in 2.8 mM glucose+30 mM KCl Krebs (depolarization challenge) for 1 h and the supernatant was collected. Clusters were dispersed into single cells using TrypLE and cell number was estimated by a Vi-Cell counter (Beckman Coulter). Insulin concentration was determined for supernatant samples using the Human Ultrasensitive Insulin ELISA (ALPCO Diagnostics). Protein extraction was performed with the M-PER extraction reagent (Thermo Scientific), and insulin content was measured for each sample using the human Ultrasensitive Insulin ELISA kit. Insulin secretion levels were normalized to total insulin content for each sample. Stimulation indexes were calculated as a ratio of insulin secretion at high glucose (20 mM) relative to the basal secretion (2.8 mM glucose).

The next test deals with SC-β cell grafts. Kind of test: Mouse transplantation analysis of SC-β cell grafts under the kidney capsule. It is filed as in vivo, immunodeficient SCID-beige mice. Here is the method: Cell clusters were collected at the end of each of the differentiation stages and fixed with 4% paraformaldehyde for 1 h at RT, washed in 30% sucrose, embedded in OCT compound (Tissue-Tek) and sectioned for histological analysis. Clusters were blocked with PBS+ 0.1% Triton X-100 (VWR)+5% donkey serum (Jackson Immunoresearch) for 30 min at RT, incubated with primary antibodies overnight at 4° C., washed, and incubated with secondary antibodies for 1 h at RT. Stained clusters were washed and mounted in Flouromount-G (Invitrogen), covered with coverslips, and sealed with nail polish. Images were taken using a Zeis Axio Imager.Z2 and Apotome.2. Image analysis was performed with ImageJ. To estimate the relative proportion of cells in the graft, four tissue sections from different areas in the graft were imaged, and the relative proportions of relevant cell types were quantified as a percent of cells positive for the relevant marker of the total number DAPI nuclei. […]
Dissociated SC-β cells were transplanted into the kidney capsule of immunodeficient SCID-beige mice (Jackson Laboratory), aged 8-10 weeks. […] Wound clips were removed 10 days after surgery and mice were monitored twice a week.
Mice were then analyzed for graft function at various time points by performing in vivo [3]. […]

In the case of `CC[C@H](CO)Nc1nc(NCc2ccccc2)c2ncn(C(C)C)c2n1` [roscovitine], in test [1] (10 μM roscovitine at stage 5, stage 5, day 4, compared with the verteporfin effect), the “differentiation of MPPs into NGN3+ endocrine progenitors (in words)” value was “did not have the same effect”. Also, the “CHGA+/NKX6-1+ endocrine progenitor cells by the end of stage 5” value in test [1] (treatment during stage 5) was “not observed”.

Take verteporfin: the “proportion of MPPs coexpressing the proliferation marker Ki67” value in test [2] (PDX1/Ki67 at end of stage 4) is “twofold decrease”. Further, the “number of NKX6.1+ progenitors compared with control differentiations” value in test [2] (PDX1/NKX6.1 co-positive cells at end of stage 4) is reported as “significant decrease”. Further, the “proportion of NGN3+ endocrine progenitors” value in test [1] (treatment during stage 5, assayed at stage 5, day 4, DMSO control 6.4±0.52%) stood at 12.1±2%. For the same compound, the “CHGA+/NKX6-1+ endocrine progenitor cells by the end of stage 5” value in test [1] (treatment during stage 5) is “increase”. Also, the “proportion of C-peptide+/NKX6.1+ β cells” value in test [3] (0.35 μM verteporfin, end of stage 6, control 27.5±4.2%) came out at 38.6±3.9%. Besides, the “glucagon+/C-peptide- alpha cells” value in test [3] (0.35 μM verteporfin, end of stage 6, vs control) is recorded as “modest but significant increase”. Besides, the “effect on SC-endocrine and β-cell differentiation in other hPSC cell lines” value in test [3] (1016 and 13B iPSC lines, C-peptide/NKX6.1 and CHGA/NKX6.1 at stage 6 day 14) is “robust and independent of the genetic background”. For the same compound, the “proportion of SOX9+ ductal-like progenitor cells” value in test [3] (treatment during endocrine and β-cell differentiation stages, end of stage 6, vs control) was “decrease”. Further, the “proportion of Ki67+ proliferating cells” value in test [3] (verteporfin during endocrine and β-cell differentiation stages, end of stage 6, vs control) is listed as “decrease”. Besides, the “impaired endocrine differentiation upon YAPS6A overexpression” value in test [3] (verteporfin treatment of YAPS6A-overexpressing cells, C-peptide/NKX6.1 at stage 6 day 14) is on record as “rescued”. Besides, the “levels of insulin secretion per total insulin content at 2.8 mM glucose, 20 mM glucose, and 30 mM KCl” value in the test on SC-β cells (SC-β cells differentiated with verteporfin vs DMSO control) is “significantly higher”. Also, the “insulin secretion at high glucose over low glucose in sequential glucose stimulations” value in the test on SC-β cells (verteporfin during stages 5 and 6, 20 mM vs 2.8 mM glucose) is “increase in insulin secretion at high glucose over low glucose”. Besides, the “stimulation indexes (insulin secretion at 20 mM relative to 2.8 mM glucose)” value with SC-β cells (verteporfin-treated vs control endocrine cells) is “no statistically significant differences”. The “proportion of SOX9+ cells in the grafts” value in the test on SC-β cell grafts (cells differentiated in the presence of verteporfin, 12-week post transplantation, SOX9+ of DAPI+, control grafts ~17%) was 3.1%. For the same compound, the “in vivo glucose-stimulated human insulin secretion” value in the test on SC-β cell grafts (grafts of cells differentiated in the presence of verteporfin, serum human insulin before and 30 min after glucose injection, 8 weeks post transplantation) is “robust”.
